Among the data in the OligoGym collection are target mRNA inhibition values, retold here.

Several values for one entry are separate records, joined by “and”; a condition that tells them apart may be missing. Equal values may be shown once. After the bases stand the sugars from the 5' end (letter, count) and the backbone: PS all phosphorothioate, else s phosphorothioate and o phosphodiester by linkage. Methylation of C is not given here. e = 2'-O-(2-methoxyethyl) (MOE); d = 2'-deoxy (DNA)

In this data set the target is DGAT2. The note with it: ASO.

For the sequence “TGTCTTCACCAGCTGGATGG (sugars e5 d10 e5, PS)”, the target mRNA inhibition (HepG2, 0.12 µM) was found to be 55%.
Still for that read-out and setting: to “TGCAGCCTGGACAAGTCCTG (sugars e5 d10 e5, PS)” belongs 67%.
With “TATTCATCTTTCCAGATCCG (sugars e5 d10 e5, PS)”, the target mRNA inhibition stood at 66% (HepG2, 2.5 µM) and 91% (HepG2, 10 µM).
Where the note is “HepG2, 0.12 µM”, “ATCCAGTGCCCCATCTCCCA (sugars e5 d10 e5, PS)” registered a target mRNA inhibition of 16%.
On to “GCAGGCCTCGGGAAGCACCT (sugars e5 d10 e5, PS)”, for which the target mRNA inhibition was 69% and 67% (HepG2, 2.5 µM); 93% and 87% (HepG2, 10 µM).
As for “ATTTCTTATCTTCAATCCTC (sugars e5 d10 e5, PS)”, the target mRNA inhibition is, setting by setting: (HepG2, 2.5 µM) 57%; (HepG2, 10 µM) 95%.
The sequence “TGTGCTGCATCCATGTCATC (sugars e5 d10 e5, PS)” yielded a target mRNA inhibition (HepG2, 0.12 µM) of 36%.
Turning to “TCCATGTCAGAGAGGCT (sugars e3 d10 e4, PS)”, the target mRNA inhibition (HepG2, 2.5 µM) was 78% and 76%; the target mRNA inhibition (HepG2, 10 µM) is 65% and 89%.
Regarding “TGGAGCTCAGAGACTCAGCC (sugars e5 d10 e5, PS)”, the target mRNA inhibition reads like this: (HepG2, 0.12 µM) 77%; (HepG2, 2.5 µM) 19%; (HepG2, 10 µM) 70%; (HepG2, 20 µM) 46%.
As to “GGCCCCAGGAGCCCTCCTCG (sugars e5 d10 e5, PS)”, the target mRNA inhibition (HepG2, 0.12 µM) was determined as 40%.
“GACTTCCCTTCACAGAATCC (sugars e5 d10 e5, PS)” returned a target mRNA inhibition (HepG2, 0.12 µM) of 5%.
Sequence “CCTCCTTAGCTTTAATCCAG (sugars e5 d10 e5, PS)” registered a target mRNA inhibition (HepG2, 2.5 µM) of 43% and a target mRNA inhibition (HepG2, 10 µM) of 82%.
Regarding “CTTCTGGACCCATCGGCCCC (sugars e5 d10 e5, PS)”, the target mRNA inhibition (HepG2, 0.12 µM) was determined as 30%.
With “GAGCTCAGAGACTCAGCCGC (sugars e3 d14 e3, PS)”, the target mRNA inhibition by setting is: (HepG2, 0.12 µM) 89%; (HepG2, 10 µM) 72% and 73%.
Regarding “GCTGAGTCTGTGCTGCA (sugars e3 d10 e4, PS)”, the target mRNA inhibition reads like this: (HepG2, 2.5 µM) 56%; (HepG2, 10 µM) 85%.
For the setting “HepG2, 0.12 µM”, “TAGCATTGCCACTCCCATTC (sugars e3 d14 e3, PS)” came in with a target mRNA inhibition of 68%.
Same read-out and setting: the figure for “GCCCAGTTTCGGACCCACTG (sugars e2 d13 e5, PS)” is 82%.
The sequence “AGCCAGGTAAGGCCGTATGC (sugars e2 d13 e5, PS)” showed a target mRNA inhibition (HepG2, 0.12 µM) of 67%.
“CTGCTTGTACACTTCATTCT (sugars e5 d10 e5, PS)” displayed a target mRNA inhibition (HepG2, 0.12 µM) of 58%.
“CTGCATAGCTGAGCAAATCC (sugars e5 d10 e5, PS)”: the target mRNA inhibition reads like this: (HepG2, 2.5 µM) 52%; (HepG2, 10 µM) 70%.
“CCCAGTTTCGGACCCACTGT (sugars e2 d13 e5, PS)”: the target mRNA inhibition (HepG2, 0.12 µM) was 70%.
As to “AATGGAGTGACAGGGCAGGA (sugars e5 d10 e5, PS)”, the target mRNA inhibition is, setting by setting: (HepG2, 2.5 µM) 54%; (HepG2, 10 µM) 81%.
Take “TACAAAAGTCTGACATGGTG (sugars e5 d10 e5, PS)”: the target mRNA inhibition (HepG2, 0.12 µM) was 40%.
Same read-out and setting: to “TAGAAATACAATTCCTGGAT (sugars e5 d10 e5, PS)” belongs 71%; to “TGGTGATGGGCTTGGAGTAG (sugars e5 d10 e5, PS)”, 28%.
As for “TGCACCATAATCTGCACAGG (sugars e5 d10 e5, PS)”, the target mRNA inhibition was 75% and 71% (HepG2, 2.5 µM); 80% and 91% (HepG2, 10 µM).
Take “TGACCTTGGGATAGTCCCTC (sugars e5 d10 e5, PS)”: the target mRNA inhibition by setting is: (HepG2, 2.5 µM) 93%; (HepG2, 10 µM) 89%.
Take “AGGCATATACAAAAGTCTGA (sugars e5 d10 e5, PS)”: the target mRNA inhibition (HepG2, 0.12 µM) came to 38%.
Turning to “AAGGAGTTTGTGTTTCCCAT (sugars e5 d10 e5, PS)”, the target mRNA inhibition runs as follows: (HepG2, 2.5 µM) 71% and 65%; (HepG2, 10 µM) 91% and 85%.
Take “TGGACAAGTCCTGCCCATCT (sugars e3 d14 e3, PS)”: where the note is “HepG2, 0.12 µM”, the target mRNA inhibition is 69%.
“GAGTCTGTGCTGCATCCATG (sugars e5 d10 e5, PS)”: the target mRNA inhibition (HepG2, 0.12 µM) was 48%.
Same read-out and setting: the figure for “GGGAAGGTAAACTGAGGCCA (sugars e5 d10 e5, PS)” is 32%.
On the same count and under the same terms, the figure for “AGGCATGGAGCTCAGAGACT (sugars e3 d14 e3, PS)” is 66%.
Regarding “GGCATGCTTCCTCCCACTTC (sugars e5 d10 e5, PS)”, the target mRNA inhibition runs as follows: (HepG2, 2.5 µM) 67%; (HepG2, 10 µM) 72%.
“CCCAGATTTAGCCACCACCT (sugars e5 d10 e5, PS)”: the target mRNA inhibition reads like this: (HepG2, 2.5 µM) 56%; (HepG2, 10 µM) 72%.
Taken in the same sequence, the figures for “GATCACCTGCTTGTACACTT (sugars e5 d10 e5, PS)” were 36% and 64%.
Under “HepG2, 0.12 µM”, “CCTGGTGGTCAGCAGGTTGT (sugars e5 d10 e5, PS)” displayed a target mRNA inhibition of 64%.
Take “TGCTGGATCCAGTGCCCCAT (sugars e5 d10 e5, PS)”: the target mRNA inhibition (HepG2, 0.12 µM) stood at 44%.
Regarding “GAGCACTTGATCTGGGACCC (sugars e5 d10 e5, PS)”, the target mRNA inhibition is, setting by setting: (HepG2, 2.5 µM) 80% and 71%; (HepG2, 10 µM) 92% and 91%.
Take “TTGTCCTGGTCCCAGTACTT (sugars e5 d10 e5, PS)”: the target mRNA inhibition reads like this: (HepG2, 2.5 µM) 68%; (HepG2, 10 µM) 88%.
For the sequence “AATAGTCTATGGTGTCCCGG (sugars e5 d10 e5, PS)”, the target mRNA inhibition (HepG2, 0.12 µM) is 63%.
The same measure, in the same setting: to “TTCTTTTAAATAACCCACAG (sugars e5 d10 e5, PS)” belongs 8%; to “ATGGAGCTCAGAGACTCAGC (sugars e2 d13 e5, PS)”, 73%.
The sequence “TGTGTCTTCACCAGCTGGAT (sugars e5 d10 e5, PS)” showed a target mRNA inhibition (HepG2, 0.12 µM) of 55%.
Regarding “GGCCCAGATTTAGCCACCAC (sugars e5 d10 e5, PS)”, the target mRNA inhibition reads like this: (HepG2, 2.5 µM) 51%; (HepG2, 10 µM) 79%.
On to “CAGAGTTATCCTCAATTCAC (sugars e5 d10 e5, PS)”, for which, where the note is “HepG2, 0.12 µM”, the target mRNA inhibition turned out to be 34%.
For “AAGATATAGTTCCTGGTGGT (sugars e5 d10 e5, PS)”, the target mRNA inhibition (HepG2, 0.12 µM) came out at 41%.
For the sequence “GCTTGTCGAAGAGCTTCACC (sugars e5 d10 e5, PS)”, the target mRNA inhibition stood at 25% (HepG2, 2.5 µM) and 78% (HepG2, 10 µM).
In the case of “TGTACACTTCATTCTCTCCA (sugars e5 d10 e5, PS)”, the target mRNA inhibition was found to be 41% (HepG2, 2.5 µM) and 87% (HepG2, 10 µM).
Take “GCCAACAAGTGGGAAATGCA (sugars e5 d10 e5, PS)”: the target mRNA inhibition (HepG2, 2.5 µM) was found to be 51% and the target mRNA inhibition (HepG2, 10 µM) was 80%.
Sequence “TTTCGGACCCACTGTGACCT (sugars e2 d13 e5, PS)” gave a target mRNA inhibition (HepG2, 0.12 µM) of 68%.
With “AATCCAACCCTTGTCACTCT (sugars e5 d10 e5, PS)”, the target mRNA inhibition runs as follows: (HepG2, 2.5 µM) 33%; (HepG2, 10 µM) 94%.
Taken in the same sequence, the figures for “GTCAAACCTAGGTTCAGACT (sugars e5 d10 e5, PS)” were 68% and 87%.
For “GTCCTGGAGGGCGGAGAGGA (sugars e5 d10 e5, PS)”, where the note is “HepG2, 0.12 µM”, the target mRNA inhibition was found to be 32%.
The same measure, in the same setting: to “GCAAATAGTCTATGGTGTCC (sugars e5 d10 e5, PS)” belongs 60%; to “GAGTATAGAAATTTCACTGA (sugars e5 d10 e5, PS)”, 44%.
